Tests used:
HUVECs = assay: HUVEC adhesion to basement membrane substrata; type: cell-based, human
Method: (§1) Human umbilical vein endothelial cells (H 930) were generously supplied by Dr. Tom Maciag, American Red Cross (Gaithersburg, Md., USA) and were used between passages 9 and 14 to avoid senescence. HUVECs were grown on fibronectin-coated tissue culture plastic (200 μg/150 mm dish) in complete medium (Medium 199 (M-199) containing 5 U/mL preservative-free heparin, 25.5 μg/mL ECGS, 10% fetal bovine serum and 100 U/mL penicillin, 100 μg/mL streptomycin, and 0.25 μg/mL fungizone).
Adhesion of control and compound 1-treated HUVECs to specific substrata was tested as follows. Glass slides coated with specific adhesion substrata were prepared by placement of 10 μL aliquots of 25 nM each fibronectin,laminin, gelatin or type IV collagen into triplicate wells of multichamber slides. Slides were incubated at 37° C. for 2 hours and then air-dried overnight. The following day the slides were blocked with 300 μL of blocking buffer (Tris […] pH 7.8, NaCl 111 mM, CaCl2 5 mM, and 1% BSA) for 30 min at 37° C. HUVECs were harvested with trypsin-EDTA and allowed to recover at 37° C. in complete medium for at least 1 hr. The cells were then washed free of serum and resuspended at 1×10^6 cells/mL in control medium followed by addition to the coated wells (200 μL) and incubation at 37° C. for 90 min. After incubation, the slides were washed gently three times with DPBS and the adherent cells were fixed and stained as above. Five high power fields per well in triplicate were counted to determine the number of cells attached to the different substrata. Data are expressed as percentage of control cell adhesion (x±SEM, n=3).

MMP-2 = assay: Gelatin zymography of HUVEC conditioned medium, MMP-2 gelatinase activity (basal); type: cell-based, human; settings: 24 hr
Method: as §1
Angiogenesis is characterized by a local degradation of subendothelial basement membrane by endothelial cell-secreted gelatinases. Aliquots of concentrated HUVEC conditioned medium from compound 1-treated and control cells were subjected to gelatin zymography, in order to test the effect of compound 1 on metalloproteinase production.
Gelatin zymography was carried out as described in Brown, et al., Cancer Research 50:6184-6191 (1990). HUVECs were seeded at 1.2×10^5 /cm^2 in 25 cm^2 fibronectin-coated tissue culture flasks in complete medium containing increasing concentrations of compound 1 (0.1-10 μM) or DMSO vehicle control. After 18 hr of culture, the complete medium was removed and the cells were washed once with serum-free M-199 supplemented with 5 μg/mL bovine insulin, 5 μg/mL human transferrin and 5 ng/mL sodium selenite (ITS). […]

[1] = test system: chick chorioallantoic membrane; assay: Chick chorioallantoic membrane (CAM) angiogenesis assay; type: in vivo; settings: 48 hr
Method: The chick chorioallantoic or yolk sac membrane (CAM) assays for angiogenesis are important in vivo models of microvessel formation. […] Briefly, fertilized chick embryos with the yolk intact were removed from their shells on day 3 of development and incubated at 37° C.

bFGF receptor = assay: bFGF-induced tyrosine phosphorylation in HUVECs (phosphotyrosine immunoprecipitation and Western analysis); type: cell-based, human; settings: 10 μM
Method: as §1
It exerts its activity through activation of the bFGF receptor kinase with subsequent autophosphorylation of its receptor as well as phosphorylation of other signaling proteins. See, Jaye, et al., Biochim. Biophys. Acta 1135:185-199 (1992). Phosphotyrosine immunoprecipitation and Western analysis were used to investigate the effect of compound 1 on bFGF-mediated tyrosine phosphorylation.
The following day, cells were exposed to bFGF, 10 ng/mL for 15 min at 37° C. Cells were quickly washed with cold DPBS, scraped from the plate and lysed with lysis buffer (50 mM Tris-HCl pH 7.6, 300 mM NaCl, 10 μg/mL aprotinin, 1 mM phenylmethylsulphonylfluoride (PMSF), 400 μM sodium orthovanadate, 400 μM EDTA, 100 mM sodium fluoride, 100 mM sodium pyrophosphate, and 0.5% Triton-X 100) for 1 hr on ice. The lysates were centrifuged at 4° C. at 1200×g for 15 minutes after which the supernatants were saved and protein concentration determined using bicinchoninic assay protein detection method. Aliquots of lysis protein ([…] per sample) were incubated with 10 μg of anti-phosphotyrosine monoclonal antibody, 4G10, pre-conjugated to protein A-sepharose beads for 1 hr at 4° C. The beads were washed three times with buffer containing 0.1% Triton X-100 and then the immunoprecipitated proteins were eluted with 2X Laemmli sample buffer and subjected to 4-12% gradient gel electrophoresis. Proteins were transferred electrically, blocked (7.5% glycine, 5% dry milk, 1% ovalbumin) for 30 min at room temperature, then washed (0.001% ovalbumin, 0.001% dry milk, 0.001% Tween-20 in phosphate-buffered saline (PBS)). […]

With NC(=O)c1nnn(Cc2cc(Cl)c(C(=O)c3ccc(Cl)cc3)c(Cl)c2)c1N [Compound 1, 5-amino-1-(4-(4-chlorobenzoyl)-3,5-dichlorobenzyl)1,2,3-triazole-4-carboxamide] the “inhibition of HUVEC adhesion to all substrata tested (in words)” value (HUVECs; 0-10 μM, 18 hr pretreatment) was “inhibited in a dose-dependent fashion”, the “inhibition of HUVEC adhesion to collagen type IV (in words)” value (HUVECs; 1.0 μM, 18 hr pretreatment, P2<0.027) was “statistically significant” and the “inhibition of HUVEC adhesion to laminin (in words)” value (HUVECs; 1.0 μM, 18 hr pretreatment, P2<0.04) was “statistically significant”. The “inhibition of HUVEC adhesion to fibronectin (in words)” value (HUVECs; 1.0 μM, 18 hr pretreatment, P2<0.043) was “statistically significant”, the “inhibition of HUVEC adhesion to laminin (in words)” value (HUVECs; 10.0 μM, 18 hr pretreatment, p2<0.004) was “statistically significant” and the “inhibition of HUVEC adhesion to fibronectin (in words)” value (HUVECs; 10.0 μM, 18 hr pretreatment, p2<0.011) was “statistically significant”. The “inhibition of HUVEC adhesion to collagen type IV (in words)” value (HUVECs; 10.0 μM, 18 hr pretreatment, p2<0.025) was “statistically significant”, the “inhibition of HUVEC adhesion to gelatin (in words)” value (HUVECs; preincubation of HUVECs with compound) was “did not significantly inhibit adhesion” and the “inhibition of proMMP-2 and its activated form (in words)” value (MMP-2; 0.1-10 μM) was “dose-dependent inhibition”. The inhibition at 10 µM (MMP-2; Homo sapiens, HUVEC, 10.0 μM, read-out: decrease in MMP-2 (densitometric analysis)) was 50%, the “% Inhibition (capillary formation in vivo)” value ([1]; 10 μM) was 55% and the “Eggs with avascular zones/total” value ([1]; 10 μM) was 19/34. For the same molecule, the “embryos with large avascular zone” value ([1]; 10 μM) was 55%, the “% Inhibition (capillary formation in vivo)” value ([1]; 20 μM) was 67% and the “Eggs with avascular zones/total” value ([1]; 20 μM) was 20/30. The “embryos with large avascular zone” value ([1]; 20 μM) was 67%, the “angiogenesis inhibitory effect (in words)” value ([1]; 10 or 20 μM) was “dose-dependent” and the “effect on bFGF-stimulated tyrosine phosphorylation (in words)” value (bFGF receptor; 18 hr, bFGF 10 ng/mL for final 15 minutes) was “inhibition of bFGF-stimulated phosphorylation”. For the same molecule, the “effect on bFGF-stimulated tyrosine phosphorylation, including autophosphorylation of bFGF receptor (in words)” value (bFGF receptor; bFGF 10 ng/mL) was “blocked bFGF-stimulated tyrosine phosphorylation” and the “effect on basal tyrosine phosphorylation (in words)” value (bFGF receptor; no bFGF) was “Neither DMSO control (lane 1) or compound 1 (10 μM, lane 2) altered basal tyrosine phosphorylation”.

Source: patent US5744492A, “Method for inhibiting angiogenesis” (United States of America, priority 1994, dated 1998)
